Results from the NIST ThermoML archive (doi:10.1016/j.jct.2018.07.006).
Values joined by “and” are separate entries in the source; they are usually repeats but may differ in a detail not shown here. Equal values may be shown once.

Assay: mn = molality of the nth substance listed, in mol/kg
Details: 100 kPa, Liquid; for speed of sound: Frequency=3 MHz, Single path-length method; for mass density: Vibrating tube method

CC(C)(CO)[C@@H](O)C(=O)NCCCO [d-Panthenol] + O
Details | mass density, 293.15 K [kg/m3] | mass density, 298.15 K | mass density, 303.15 K [kg/m3] | mass density, 308.15 K [kg/m3] | speed of sound, 293.15 K [m/s] | speed of sound, 298.15 K [m/s] | speed of sound, 303.15 K | speed of sound, 308.15 K [m/s]
m1 = 0.05 | 999.509 | 998.191 kg/m3 | 996.926 | 995.295 | 1489.4 | 1503 | 1515.5 m/s and 1516 m/s | 1525.2
m1 = 0.1 | 1001.62 | 1000.22 kg/m3 | 998.987 | 997.338 | 1494.1 | 1507.6 | 1519.5 m/s and 1517.9 m/s | 1529.1
m1 = 0.15 | 1003.34 | 1002.12 kg/m3 and 1002.09 kg/m3 | 1000.58 | 998.985 | 1498.5 | 1511.6 | 1522.9 m/s | 1532.5
